According to PubChem BioAssay (NCI):
“And” between values parts separate entries of the source, which are not always exact repeats. Equal entries are not always repeated.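 Five compound concentrations were applied to cells in 96-well plates for 48 hours; endpoints were derived by simple linear interpolation of the resulting dose-response curve. GI50 marks 50% less growth. TGI denotes the concentration required for complete inhibition of growth.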

Assays:
Test in all cases: growth of human tumour cells (NCI), 48 h
[1] = test system: HL-60(TB) leukemia
[2] = test system: HS 578T breast
[3] = test system: MDA-MB-231 breast
[4] = test system: NCI-H23 lung
[5] = test system: NCI-H522 lung
[6] = test system: RPMI-8226 leukemia
[7] = test system: SK-MEL-5 melanoma
[8] = test system: SN12C renal

Row | SMILES | TGI [1] | TGI [2] | TGI [3] | TGI [4] | TGI [5] | TGI [6] | TGI [7] | TGI [8] | GI50 [1] | GI50 [2] | GI50 [3] | GI50 [4] | GI50 [5] | GI50 [6] | GI50 [7] | GI50 [8]
1 | Clc1ccccc1NN(Cc1ccccn1)c1ccccc1Cl | 44 µM | 63.9 µM | 57.4 µM | 50.4 µM | 41.1 µM | 61.4 µM | 27.9 µM | 33.3 µM |  |  |  |  |  |  |  | 
2 | CCN(c1ccc(CO)c(Cl)c1)C(C)c1ccc(F)cc1 (stereo not drawn) | 38.1 µM | 40.2 µM | 30.1 µM | 30.5 µM | 26.7 µM | 39.2 µM | 28 µM | 28.5 µM | 17.9 µM | 16.9 µM | 15.3 µM | 14 µM | 12.7 µM | 11.8 µM | 14.5 µM | 14.2 µM
3 | NS(=O)(=O)c1ccc(N2Cc3cc(Cl)ccc3OC3=C2C(=O)N(CC2CCCCC2)C3=O)cc1 | 0.828 µM | 6.88 µM | 2.6 µM | 3.61 µM | 0.676 µM | 0.575 µM | 3.25 µM | 2.57 µM | 0.283 µM | 2.01 µM | 1.11 µM | 1.64 µM | 0.273 µM | 0.227 µM | 1.77 µM | 1.01 µM
4 | CON(C)C(=O)C(C)NC(=O)OCc1ccccc1 (stereo not drawn) | > 100 µM | > 100 µM |  | > 100 µM |  | > 100 µM | > 100 µM | > 100 µM |  |  |  |  |  |  |  | 
5 | COC(=O)C1=C(OC(=O)c2ccc(Cl)cc2)C(C(=O)OC)[C@@]2(O)[C@@H](C(=O)OC)C(c3ccccc3C(F)(F)F)C[C@@H]1[C@@H]2C(=O)OC (stereo partly drawn) |  | 24.2 µM | 6.19 µM | 16.8 µM | 43.6 µM | > 100 µM | 12.4 µM | 6.66 µM |  | 3.96 µM | 2.07 µM | 3.47 µM | 16.4 µM | 2.99 µM | 3.46 µM | 2.08 µM
6 | O=C(O)c1cc[c]([Hg][S]c2ncnc3nc[nH]c23)cc1 | 13.4 µM | 6.06 µM | 21 µM | 34.8 µM | 8.24 µM | 28.2 µM | 36.4 µM | 38.6 µM | 0.4 µM | 1.5 µM | 6.59 µM | 15.5 µM | 1.08 µM | 4.91 µM | 14.1 µM | 17.5 µM
7 | Clc1ccc(COC(Cn2ccnc2)c2ccc(Cl)cc2Cl)cc1 (stereo not drawn) | 5.2 µM and 22.7 µM and 16.6 µM | 22.9 µM and 38.8 µM and 40.5 µM | 8.48 µM and 26.9 µM and 26 µM | 10.2 µM and 28.7 µM and 29.7 µM | 2.43 µM and 18.5 µM and 22.8 µM | 6.82 µM and 32.3 µM and 23.2 µM | 3.64 µM and 31 µM and 18.9 µM | 12.7 µM and 25.3 µM | 2.42 µM | 3.72 µM | 1.04 µM | 2.08 µM | 0.282 µM | 1.9 µM | 1.74 µM and 17.2 µM and 4.83 µM | 2.5 µM
8 | CCc1nc(N)nc(N)c1-c1ccc([N+](=O)[O-])c(NCc2ccccc2)c1 | 18.7 µM | 51.4 µM | 38.1 µM | > 60.6 µM | 35.6 µM | 32.2 µM | 22.9 µM | 44.5 µM |  |  |  |  |  |  |  | 
9 | COc1cc(-c2oc3ccccc3c(=O)c2O)cc(OC)c1OC | > 28.1 µM | 98.9 µM | > 100 µM | > 100 µM | > 80.3 µM | > 100 µM | > 100 µM | > 100 µM |  |  |  |  |  |  |  | 
10 | O=C(c1ccccc1)c1c(CC(O)c2cccnc2)n(C(=O)c2ccccc2)c2ccccc12 (stereo not drawn) | 49 µM |  |  | 36.5 µM | 30.1 µM | 44.2 µM | 31 µM |  |  |  |  |  |  |  |  | 
11 | S=C(N/N=C/c1cc(Cl)cc(Cl)c1)NC12CC3CC(CC(C3)C1)C2 | > 100 µM | 7.41 µM | > 100 µM | > 100 µM | > 100 µM | > 100 µM | > 100 µM | > 100 µM | > 100 µM | 2.16 µM | 3.99 µM | 10.6 µM | > 63.4 µM | > 100 µM | > 100 µM | 
12 | COc1ccc(-c2cc(-c3ccc(Cl)cc3)c(C#N)c(=O)n2CCCCC(=O)Nc2ccccc2N)cc1 | 5.7 µM | 52.4 µM | > 100 µM | 55.3 µM | 57.1 µM | 6.68 µM | 4.48 µM | > 100 µM | 2.08 µM | 8.18 µM | 7.86 µM | 12.7 µM | 7.04 µM | 0.789 µM | 2.05 µM | 9.32 µM
13 | N/C(=N\OC(=O)c1ccccc1)C(C(=O)NOC(=O)c1ccccc1)C1CCCCC1 (stereo not drawn) | 6.07 µM | 7.93 µM | 70.9 µM | 24.1 µM | 7.76 µM | 12.2 µM | 22.8 µM | 69.4 µM | 2.38 µM | 2.57 µM | 18.1 µM | 9.28 µM | 2.82 µM | 3.12 µM | 10.3 µM | 13.4 µM
14 | Cc1ccc(C(=O)/C(=C/c2ccc([N+](=O)[O-])cc2)S(=O)Cc2ccccc2)cc1 (stereo not drawn) | 5.81 µM | 8.87 µM | 2.77 µM | 5.25 µM | 2.9 µM | 2.35 µM | 2.99 µM | 3.4 µM | 1.59 µM | 2.58 µM | 1.19 µM | 1.86 µM | 1.46 µM | 0.404 µM | 1.6 µM | 1.71 µM
15 | Cc1cc2c(cc1C)NC1=C(N2)OC(c2c[nH]c3ccc(COc4ccccc4)cc23)C1=O (stereo not drawn) | > 100 µM | > 100 µM | 67.1 µM | > 100 µM | > 100 µM | > 100 µM | > 100 µM | > 100 µM |  |  |  |  |  |  |  | 
16 | Nc1c(C(=O)Nc2ccc([As](=O)(O)O)cc2)cnc2nnnn12 | > 100 µM |  | > 100 µM | > 100 µM | > 100 µM | > 100 µM | > 100 µM | > 100 µM |  |  |  |  |  |  |  | 
17 | CC(C)n1c(/C=C/[C@@H](O)C[C@@H](O)CC(=O)O)c(-c2ccc(F)cc2)c2ccccc21 | 55.2 µM and > 100 µM | > 100 µM | 0.535 µM | > 100 µM | > 100 µM | > 100 µM | 35.4 µM and 27 µM | > 100 µM | 14.5 µM and 10.9 µM | 4.29 µM and 4.73 µM | 0.219 µM | 3.29 µM and 3.86 µM | 0.995 µM and 0.999 µM | 5.55 µM and 10.3 µM | 3.94 µM and 4.9 µM | 0.7 µM and 0.598 µM
18 | CC(C)c1ccc2nc3ccc(C(=O)NCCN(C)C)cn3c(=O)c2c1 | 42.1 µM | 35.6 µM | 34.6 µM | 33.9 µM | 29.3 µM |  | 24.8 µM | 35.9 µM |  |  |  |  |  |  |  | 
19 | C[C@]12CC[C@@H]3c4ccc(O)c([N+](=O)[O-])c4CC[C@H]3[C@@H]1CC[C@@H]2NS(=O)(=O)c1ccc(C(F)(F)F)cc1 |  | 6.56 µM | 2.93 µM | 4.1 µM | 3.48 µM | 5.4 µM | 3.28 µM | 3.1 µM |  | 2.14 µM | 1.49 µM | 1.84 µM | 1.61 µM | 2.17 µM | 1.72 µM | 1.6 µM
20 | CN1C2CC(C#N)C1C=CC2=O (stereo not drawn) | 53.4 µM and > 100 µM | > 100 µM | 40.7 µM and > 100 µM | 48.6 µM and > 100 µM |  |  | > 100 µM | > 100 µM |  | 35.4 µM and > 100 µM | 19.7 µM and > 100 µM | 16.2 µM and 60.1 µM |  |  | > 100 µM | > 100 µM
21 | CC(=O)c1cccc(N(/C=C/C(=O)C(F)(F)F)CC(=O)c2ccc(Cl)cc2)c1 |  | > 100 µM | > 100 µM | > 100 µM | > 100 µM | > 100 µM | > 100 µM | > 100 µM |  | > 100 µM | > 100 µM | > 100 µM | > 100 µM | > 100 µM | > 100 µM | > 100 µM
22 | O=c1oc2ccccc2c(O)c1C=NC(=S)c1ccncc1 | 35.5 µM |  | > 100 µM | > 100 µM |  |  | > 100 µM | > 100 µM |  |  |  |  |  |  |  | 
23 | C[n+]1cc2c3c(ccc2c2ccc4cc5c(cc4c21)OCO5)OCO3 | 2.7 µM | > 24.6 µM | 1.98 µM | 2.18 µM | 1.41 µM | 1.88 µM | 2.39 µM |  | 0.445 µM | 2.11 µM | 0.63 µM | 0.72 µM | 0.3 µM | 0.365 µM | 1.16 µM | 
24 | COc1cc(-c2csc(NC(=O)c3cc(C(F)(F)F)cc(C(F)(F)F)c3)n2)cc(OC)c1OC | 6.18 µM | > 100 µM | > 100 µM |  | 5.05 µM | 4.05 µM | 3.11 µM | > 100 µM | 2.07 µM | 3.14 µM | 2.72 µM |  | 1.4 µM | 1.38 µM | 1.47 µM | 2.78 µM
25 | O=C(CC(C(=O)c1cccs1)c1ccc2c(c1)OCO2)c1ccc(Br)cc1 (stereo not drawn) | > 100 µM |  | > 100 µM | > 100 µM |  | > 100 µM | > 100 µM | > 100 µM |  |  |  |  |  |  |  | 
26 | COc1cc(Nc2ccnc(N3CCN(c4ccnc5cc(Cl)ccc45)CC3)n2)cc(OC)c1 | > 100 µM | > 100 µM | > 100 µM | > 100 µM | 4.48 µM |  |  | > 100 µM | 2.58 µM | 2.59 µM | 0.567 µM | 1.32 µM | 0.874 µM |  |  | 1.28 µM
27 | COc1cc(/C=C2\CN(C)CC3=C2Nc2nc(SC)[nH]c(=O)c2C3c2cc(OC)c(OC)c(OC)c2)cc(OC)c1OC (stereo not drawn) | 9.66 µM | > 100 µM | 13.1 µM | 15.8 µM | 4.69 µM |  | 11.9 µM | 15.5 µM | 2.26 µM | 8.88 µM | 3.14 µM | 3.54 µM | 2.04 µM |  | 2.83 µM | 2.98 µM
